The text below walks through data of patent US20240024490A1, “BIFUNCTIONAL MOLECULES FOR SELECTIVE MODIFICATION OF TARGET SUBSTRATES” (The Broad Institute, Inc., priority 2021, published 2024).

Data set [1] addresses T1, PDK1 (Homo sapiens, UniProt O15530).
T1 sequence (O15530 1-556): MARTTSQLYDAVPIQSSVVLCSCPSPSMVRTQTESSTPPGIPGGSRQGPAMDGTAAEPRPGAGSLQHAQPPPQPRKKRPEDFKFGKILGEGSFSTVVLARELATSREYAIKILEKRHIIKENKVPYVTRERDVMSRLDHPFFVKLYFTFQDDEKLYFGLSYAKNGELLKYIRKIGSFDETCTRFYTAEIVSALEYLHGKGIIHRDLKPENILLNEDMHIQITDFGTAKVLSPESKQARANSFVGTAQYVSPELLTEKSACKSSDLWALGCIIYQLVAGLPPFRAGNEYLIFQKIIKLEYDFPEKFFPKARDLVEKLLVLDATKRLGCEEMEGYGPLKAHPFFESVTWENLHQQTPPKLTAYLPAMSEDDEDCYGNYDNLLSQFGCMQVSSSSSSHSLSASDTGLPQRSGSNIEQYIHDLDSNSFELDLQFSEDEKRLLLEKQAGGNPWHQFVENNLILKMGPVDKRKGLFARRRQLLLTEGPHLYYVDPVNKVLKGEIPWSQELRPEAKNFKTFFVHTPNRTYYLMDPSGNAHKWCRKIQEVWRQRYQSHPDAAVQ
As to conditions: cited from earlier work.

The target of data set [2] is T1, PDK1. As to conditions: ITC; cited from earlier work.
For data set [3] the following is noted: cited from earlier work.
A further data set has as its system ABL myristoyl domain. The following applies: cited from earlier work.
The subject of data set [4] is Z-138 cells. In words: Z-138 cell viability. In kind it is cell-based. The source says:
Since PKC phosphorylates membrane-associated BTK with the C1 domain buried in the lipid bilayer, [5] Applicants aimed to characterize PHICS-mediated BTK phosphorylation by PKC in vitro in the absence of lipid bilayer. […] PEG4 linker, and benzolactam (FIG. 73A). […] One of the modified residues (T410) is located close to the ATP binding pocket, whereas other sites (S310, 5323, and 5378) are on the loops of the SH2 domain in BTK. […] To explore the biological consequences of these neo-phosphorylations, Applicants adopted a genetic approach where the phosphorylated Ser/Thr residues were mutated to aspartic acid, a phosphomimetic, and alanine as a control. […] [8] […] The following studies will be focused on further optimization of the anti-cancer potency of BTK and BCR-ABL targeting PKC-based PHICS molecules as well as on the detailed investigation of their mechanism of action.
Applicants assessed the viability of Z-138 cells after introduction of small molecules at various concentrations, see FIGS. 67-71. […]
Applicants found a non-linear dependency on Z-138 cell viability as a function of linker length and composition.

For data set [5], the system named is Z-138 cells. In words: Z-138 cell viability. The class given is cell-based. The following applies: FIGS. 67-71.
The next data set deals with K562 cells. Kind of data set: K562 cell viability. The class given is cell-based.
The target in another data set is T2, Recombinant PKCζ (Homo sapiens, UniProt Q05513).
T2 sequence (Q05513 1-592): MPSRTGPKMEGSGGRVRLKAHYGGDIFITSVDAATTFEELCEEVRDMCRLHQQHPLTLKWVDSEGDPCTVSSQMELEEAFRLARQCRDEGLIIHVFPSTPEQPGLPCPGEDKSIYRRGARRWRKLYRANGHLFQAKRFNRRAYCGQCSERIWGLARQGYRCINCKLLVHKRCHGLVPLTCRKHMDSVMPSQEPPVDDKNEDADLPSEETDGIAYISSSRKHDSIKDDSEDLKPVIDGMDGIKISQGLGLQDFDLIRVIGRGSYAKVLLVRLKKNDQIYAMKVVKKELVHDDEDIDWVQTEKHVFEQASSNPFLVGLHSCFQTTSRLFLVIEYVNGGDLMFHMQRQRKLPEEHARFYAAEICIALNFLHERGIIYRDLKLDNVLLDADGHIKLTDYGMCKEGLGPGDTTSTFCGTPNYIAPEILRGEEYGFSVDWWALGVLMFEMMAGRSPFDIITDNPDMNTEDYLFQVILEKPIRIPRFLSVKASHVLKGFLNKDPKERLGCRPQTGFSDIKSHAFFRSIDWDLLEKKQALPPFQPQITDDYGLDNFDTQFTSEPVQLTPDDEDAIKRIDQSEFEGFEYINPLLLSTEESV
The following applies: cited from earlier work.

The next data set deals with T3, Aurora A (Homo sapiens, UniProt O14965).
T3 sequence (O14965 1-403): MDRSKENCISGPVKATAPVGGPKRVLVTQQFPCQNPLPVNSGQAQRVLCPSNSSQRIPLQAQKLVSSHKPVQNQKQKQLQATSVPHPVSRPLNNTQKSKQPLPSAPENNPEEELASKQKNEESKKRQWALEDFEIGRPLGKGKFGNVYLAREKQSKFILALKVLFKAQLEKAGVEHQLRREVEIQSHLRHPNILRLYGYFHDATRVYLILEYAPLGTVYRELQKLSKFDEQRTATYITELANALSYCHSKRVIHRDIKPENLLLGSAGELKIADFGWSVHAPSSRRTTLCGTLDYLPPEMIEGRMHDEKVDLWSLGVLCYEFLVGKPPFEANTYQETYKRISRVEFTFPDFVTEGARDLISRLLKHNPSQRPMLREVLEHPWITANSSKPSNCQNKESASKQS
As to conditions: cited from earlier work; for Ki: read-out: Calculated Ki.

Another data set deals with HSP90. As to conditions: cell free assay; cited from earlier work.
For another data set, the target named is JNK 1 (Homo sapiens, UniProt P45983). The following applies: cited from earlier work.
JNK 1, sequence (P45983 whole entry, species assumed): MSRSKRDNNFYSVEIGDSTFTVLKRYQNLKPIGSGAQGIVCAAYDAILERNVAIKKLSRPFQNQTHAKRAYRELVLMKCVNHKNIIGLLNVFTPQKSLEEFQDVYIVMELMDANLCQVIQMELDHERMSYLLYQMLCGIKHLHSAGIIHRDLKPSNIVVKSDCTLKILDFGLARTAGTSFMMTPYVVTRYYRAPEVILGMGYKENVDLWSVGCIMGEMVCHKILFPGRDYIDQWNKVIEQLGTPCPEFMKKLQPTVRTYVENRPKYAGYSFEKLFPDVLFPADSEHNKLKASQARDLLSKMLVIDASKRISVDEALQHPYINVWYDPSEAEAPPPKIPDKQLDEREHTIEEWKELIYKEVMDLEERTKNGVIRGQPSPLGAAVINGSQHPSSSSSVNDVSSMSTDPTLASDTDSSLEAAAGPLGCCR
For a further data set, the target named is JNK 2 (Homo sapiens, UniProt P45984). The following applies: cited from earlier work.
JNK 2, sequence (P45984 whole entry, species assumed): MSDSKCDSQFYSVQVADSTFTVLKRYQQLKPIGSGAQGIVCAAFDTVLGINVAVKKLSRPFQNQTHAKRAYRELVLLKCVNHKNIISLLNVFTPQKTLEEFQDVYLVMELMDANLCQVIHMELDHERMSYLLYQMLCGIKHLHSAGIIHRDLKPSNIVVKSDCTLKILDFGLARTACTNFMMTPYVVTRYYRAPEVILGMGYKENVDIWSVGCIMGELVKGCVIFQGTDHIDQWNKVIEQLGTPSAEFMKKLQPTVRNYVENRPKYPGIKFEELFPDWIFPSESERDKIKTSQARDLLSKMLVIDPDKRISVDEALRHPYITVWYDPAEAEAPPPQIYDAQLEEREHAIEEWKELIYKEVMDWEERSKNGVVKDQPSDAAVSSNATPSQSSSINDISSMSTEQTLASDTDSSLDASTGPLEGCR

Where two headings read alike, the source gives them in different places.

For the molecule `O=C(O)/C=C(/CCc1ccc(Br)cc1)c1ccccc1` [5Z], the concentration at half-maximal activity (AC50) at PDK1 [1] (read-out: AC50) was 9.8 µM. For the same molecule, on PDK1 [2], the TΔS is recorded as 3.20 kcal/mol, the ΔG is -6.32 kcal/mol, the ΔH was -3.07 kcal/mol and the ΔH/ΔG is on record as 46.6%. As for `O=C(NOC[C@H](O)CO)c1ccc(F)c(F)c1Nc1ccc(I)cc1F` [Mirdametinib], the “Sol (pH 6.5)” value in [3] is recorded as 190 μg/mL. For the molecule `O=C(O)/C=C(/CCc1ccc2ccccc2c1)c1ccccc1` [12Z], on PDK1 [1] (read-out: AC50), the concentration at half-maximal activity (AC50) is 6 µM. Also, on PDK1 [2], the TΔS is on record as 1.96 kcal/mol, the ΔG is -6.67 kcal/mol, the ΔH was -4.56 kcal/mol and the ΔH/ΔG is recorded as 68.3%. In the case of `CCCN(Cc1ccc(-c2ccccc2-c2nn[nH]n2)cc1)c1nc2ccccc2s1` [compound 2], the negative logarithm of the IC50 (pIC50) with ABL myristoyl domain is reported as 6.5. For the molecule `CCc1ccc(CC/C(=C/C(=O)O)c2ccccc2)cc1` [10Z], the AC50 at PDK1 [1] (read-out: AC50) was more than 50 µM. As for `C=CC(=O)N1CCC[C@@H](n2nc(-c3ccc(Oc4ccccc4)cc3)c3c(N)ncnc32)C1` [Ibrutinib], the “effect on Z-138 cell viability” value with Z-138 cells [4] and in the data set with Z-138 cells [5] was “did not have any significant effect” each time.

Regarding `O=C(NOCC(O)CO)c1ccc(F)c(F)c1Nc1ccc(I)cc1F` (stereo not shown) [Compound 35], the “Sol (pH 6.5)” value in data set [3] is 255, μg/mL. For `CCc1ccc(CC/C(=C\C(=O)O)c2ccccc2)cc1` [10E], at PDK1 [1], the AC50 result is recorded as “n.e”. Regarding `CCCN(Cc1ccc(-c2ccccc2-c2nn[nH]n2)cc1)c1nc2ccccc2s1` [Cpd2], the EC50 in the data set with K562 cells is approximately 1 µM. With `O=C(NOCC(O)CO)c1ccc(F)c(F)c1Nc1ccc(I)cc1F` (racemic) [Compound 33], in data set [3], the “Sol (pH 6.5)” value was 147 μg/mL. As for `CNCc1ccc(COc2ccc3c(c2)N(C)C(C(C)C)C(=O)NC(CO)C3)cc1` (stereo not shown) [benzolactam], the “effect on Z-138 cell viability” value with Z-138 cells [4] and in the data set with Z-138 cells [5] was “did not have any significant effect” in each case. As to `O=C(Nc1nnc(SCc2ccc([N+](=O)[O-])cc2)s1)c1ccccc1Cl` [6E], the AC50 result on PDK1 [1] was “n.e”. Turning to `CC(C)(C)C1=NN(c2cccc(F)c2)C(c2ccc(O)cc2)C1` (stereo not shown) [1i], the “cell-free assay, % inhibition at 62.5 μM” value on Recombinant PKCζ was 98.1%. With `CC(C)(C)C1=NN(c2ccc(F)cc2F)C(c2ccc(O)cc2)C1` (stereo not shown) [1o], on Recombinant PKCζ, the “cell-free assay, % inhibition at 62.5 μM” value is 68.0%. For `O=C(O)c1cc(-c2cccc(C(F)(F)F)c2)nc2ccccc12` [compound 34], on Aurora A, the IC50 was 26.5 µM and the inhibition constant (Ki) was 5.7 µM. For the molecule `CC(C)(C)C1=NN(c2ccc(Br)cc2)C(c2ccc(O)cc2)C1` (stereo not shown) [1c], the “cell-free assay, % inhibition at 62.5 μM” value at Recombinant PKCζ is recorded as 93.2%. Further, the IC50 at Recombinant PKCζ (read-out: cell-free assay, IC50 ± SD) was 11.4 ± 1.25 µM.

With `O=C1NC(=O)C(c2cn(-c3ccccc3)nc2-c2ccc(F)cc2)N1` (stereo not shown) [Cpd1], the EC50 with K562 cells (unit inferred) is not below 10 µM; in the data set on K562 cells (unit inferred, listed as Cpdl), more than 10 µM. Turning to `Cc1ccc(CC/C(=C\C(=O)O)c2ccccc2)c(Cl)c1` [8E], the AC50 result at PDK1 [1] was “n.e”. In the case of `CC(C)(C)C1=NN(c2ccc(C(F)(F)F)cc2)C(c2ccc(O)cc2)C1` (stereo not shown) [1d], on Recombinant PKCζ, the “cell-free assay, % inhibition at 62.5 μM” value is 94.2%. With Alvespimycin, the IC50 in the data set on HSP90 is 0.062 µM. Turning to `CNc1ncc2c(n1)N(C1CCC(O)C1)C(=O)N(c1cc(NC(=O)c3ccc(CN4CCN(C)CC4)c(C(F)(F)F)c3)ccc1C)C2` (stereo not shown) [compound 9], the half-inhibitory concentration (IC50) on JNK 1 is 0.97 µM; on JNK 2 it was 1.3 µM.

In the case of `Cc1ccc(N2N=C(C(C)(C)C)CC2c2ccc(O)cc2)c(C)c1` (stereo not shown) [1p], at Recombinant PKCζ, the “cell-free assay, % inhibition at 62.5 μM” value is recorded as 59.9%. For the molecule `CC(C)c1ccc(N2N=C(C(C)(C)C)CC2c2ccc(O)cc2)cc1` (stereo not shown) [1f], the “cell-free assay, % inhibition at 62.5 μM” value at Recombinant PKCζ was 54.9%. Turning to `O=C(O)c1cc(-c2cccc(F)c2)nc2ccccc12` [compound 26], on Aurora A, the IC50 is 75.9 µM and the Ki is 16.5 µM. For the molecule `CC(C)(C)C1=NN(c2ccccc2Cl)C(c2ccc(O)cc2)C1` (stereo not shown) [1l], the “cell-free assay, % inhibition at 62.5 μM” value on Recombinant PKCζ is listed as 57.1%. As for `CCOc1nc(C(=O)NCC2CCN(Cc3sc(-c4ccccc4)nc3C)CC2)cc(N)c1C#N` [compound 6], the IC50 at JNK 1 is less than 0.0018 µM; on JNK 2 it was less than 0.0026 µM. Take `O=C(O)/C=C(/CCc1c[nH]c2ccccc12)c1ccccc1` [13Z]: the AC50 on PDK1 [1] (read-out: AC50) is 7.6 µM. At PDK1 [2], the TΔS was 2.60 kcal/mol, the ΔG was -6.73 kcal/mol, the ΔH was -4.09 kcal/mol and the ΔH/ΔG is 60.8%. As to `CC(C)(C)C1=NN(c2ccc(Cl)cc2Cl)C(c2ccc(O)cc2)C1` (stereo not shown) [1n], the “cell-free assay, % inhibition at 62.5 μM” value at Recombinant PKCζ is reported as 71.0%. For `O=C(O)/C=C(/CCc1ccc(C(F)(F)F)cc1)c1ccccc1` [6Z], on PDK1 [1] (read-out: AC50), the AC50 was 7.1 µM. For the same molecule, on PDK1 [2], the TΔS is recorded as 4.79 kcal/mol, the ΔG was -6.73 kcal/mol, the ΔH is -1.84 kcal/mol and the ΔH/ΔG is 26.5%. With `O=C(O)/C=C(\CCc1ccc(F)cc1)c1ccccc1` [4E], the AC50 entry at PDK1 [1] is given as “n.e”. Turning to `CCCCN(Cc1ccc(-c2ccccc2-c2nn[nH]n2)cc1)c1nc(C)cc(C)n1` [Cpd3], the EC50 with K562 cells is approximately 0.31 µM. Consider `O=C(O)/C=C(/CCc1cccc(Cl)c1)c1ccccc1` [3Z], for which the AC50 on PDK1 [1] (read-out: AC50) is 9.5 µM. Turning to `CC(C)(C)C1=NN(c2ccc(C(=O)O)cc2)C(c2ccc(O)cc2)C1` (stereo not shown) [1g], the “cell-free assay, % inhibition at 62.5 μM” value on Recombinant PKCζ was 47.9%.

Regarding `CC(C)(C)C1=NN(c2ccccc2F)C(c2ccc(O)cc2)C1` (stereo not shown) [1m], the “cell-free assay, % inhibition at 62.5 μM” value on Recombinant PKCζ is 57.6%.
